Experimental data: article PMC7321408, “One-Pot Multicomponent Synthesis and Bioevaluation of Tetrahydroquinoline Derivatives as Potential Antioxidants, α-Amylase Enzyme Inhibitors, Anti-Cancerous and Anti-Inflammatory Agents” (Molecules, 2020)
Values after ≈ are worked out from the molar mass of the structure shown.

Key:
brine shrimp nauplii = test: Brine shrimp lethality bioassay; format: in vivo; conditions: 24 h, n = 3
Description: Brine shrimp eggs were hatched in a shallow rectangular plastic dish and filled with artificial seawater, which was prepared with a commercial salt mixture. In a 96-well plate, 150 µL of artificial seawater was added and 10 nauplii were added into this. Test compounds (400, 200, 100 and 50 µg/mL) were added into each well and the final volume was made up by adding the artificial seawater. The well plate was left uncovered under a lamp. The number of surviving shrimps were counted and recorded after 24 h. The test was repeated in triplicate. […] The percentage mortality (%M) was also calculated by dividing the number of dead nauplii by the total number and then multiplied by 100.

α-amylase enzyme = test: α-Amylase enzyme inhibitory assay; format: biochemical; conditions: 200 µg/mL
Description: An in vitro α-amylase enzyme inhibitory assay was performed by the standard protocol. Four milligrams per 1 mL of sample was prepared in DMSO. In each well of a 96-well plate, synthetic compounds were added to a final concentration of 200 µg/mL. To this, 15 μL phosphate buffer, […] α-amylase enzyme and 40 μL starch solution were added stepwise. The microplate was incubated at 50 °C for 30 min. […] The formula used to calculate the percent enzyme inhibition is:% Enzyme inhibition = [(As − An) ÷ (Ab − An] × 100
As = sample’s absorbance; An = negative’s absorbance; Ab = blank’s absorbance

[1] = test system: NO generated by LPS-induced macrophages; test: Nitric oxide assay (Griess) in LPS-induced macrophages; format: cell-based, murine; conditions: for activity at 1 µM / activity at 10 µM / activity at 50 µM / activity at 100 µM: 18 h, LPS 1 µg/mL, read-out: % NO Production (Mean ± SEM)
Description: A Griess reagent, a spectrophotometric determination of nitrite level, was carried out to measure the nitrite level in the conditioned medium of macrophages treated with lipopolysaccharide (LPS). Sodium nitrite (NaNO2) was used as a standard compound for the standard curve (Figure 8). The NO concentrations were obtained using the standard curve equation: y = 0.0083x + 0.0017, R^2 = 0.9999, where y is the absorbance at 540 nm and x is the NO concentration in µM. The inhibitory activity of the tested compounds towards NO generated by LPS-induced macrophages was obtained from the calculated value of x.
The anti-inflammatory effect of the synthesized compounds in murine macrophages was evaluated by using the Griess reaction method, described previously. In brief, 1 × 10^6 were plated in a 96-well plate and incubated in a 5% CO2 incubator at 37 °C for 24 h, pre-treated with different concentrations (100 µM, 50 µM, 10 µM and 1 µM) of synthetic compounds for another 2 h and challenged with LPS (1 µg/mL) for an additional 18 h. Equal volumes of Griess reagent (1% sulphanilamide in 50% phosphoric acid and 0.1% naphthyl ethylenediamine dihydrochloride in distilled water and vortexed) and culture medium were mixed and the absorbance was taken at 540 nm. Lipopolysaccharide (LPS) was taken as a blank and piroxicam was taken as a positive control. A t-test was applied to determine the significance of the results.

[2] = test system: carrageenan-induced paw edema; test: Carrageenan-induced paw edema (in vivo anti-inflammatory activity); parameters: species or system BALB/C albino mice; unit not given beside the values; conditions: 10 mg/kg, mice, n = 5
Description: At 7–8 weeks old, male BALB/C albino mice (29–35 g), were purchased from The National Institute of Health (NIH), Islamabad, Pakistan. Five animals were housed per group and placed in a controlled temperature and humidity-controlled room (22 °C and 66 ± 5%, respectively) in a 12 h light–dark cycle and provided with water and food ad libitum. Ethical approval was taken from the bio-ethical committee of Quaid-I-Azam University (Approval No. BEC-FBS-QAU2018-119) and all protocols were conducted following the Ethical Guide to the Code of Practice for the Housing and Care of Animals Act 1986 (ARRIVE (Animal Research: Reporting In Vivo Experiments) guidelines). The anti-inflammatory activity of the synthesized compounds was evaluated by using the carrageenan-induced rat paw edema assay. To determine the dose response of tetrahydroquinoline derivatives, animals were first given a dose of 0.1, 1 and 10 mg/kg against 100 µL carrageenan (1% solution in normal saline)/paw. Treatment was given 60 min before carrageenan injection. Readings were taken at 4 h post carrageenan injection. The in vivo anti-inflammatory activity was performed following the procedure described by Koksal, et al. in 2017. Paw edema was induced by injecting 100 µL of 1% sterile carrageenan solution into the right hind paw of mice. Synthesized compounds (10 mg/kg), vehicle (saline with 2% DMSO) and drug (acetylsalicylic acid, ASA 10 mg/kg) were administered to the mice orally by gastric intubation 60 min before injecting carrageenan into the right hind paw. The decrease in edema was measured by vernier calipers every 2 h.

[3] = DPPH free radical scavenging assay; conditions: mean ± SEM, n = 3; for IC50 (DPPH radical scavenging): concentration to scavenge 50% of the DPPH radicals
Description: The % free radical scavenging activity (%FRSA) of the synthetic compounds was evaluated by the discoloration of an unstable DPPH reagent to the stable yellow-colored 2,2-diphenyl-1-picrylhydrazine molecule by accepting one electron from a donor antioxidant; the mechanism is shown in Scheme 2.
The % FRSA (free radical scavenging activity) of the synthetic compounds was determined by using the method of Tai et al. with slight modifications. The antioxidant potential was determined by detecting the capacity of the synthetic compounds to quench the DPPH free radicals. The synthetic compounds were taken in a 96-well plate at three-fold concentrations of 200 µg/mL, 66.6 µg/mL, 22.2 µg/mL and 7.4 µg/mL. DPPH free radicals were added to entire wells to make up the volume up to 200 µL. DMSO and ascorbic acid were taken as negative and positive controls, respectively. The absorbance was taken at 630nm using a microplate reader (ELx800 BioTek). The percentage of scavenging activity was calculated by the given formula:% scavenging activity = (1 − Abs/Abc) × 100
Abs = sample’s absorbance; Abc = control’s absorbance.

[4] = MTT cytotoxicity against raw macrophages; format: cell-based, albino rats; conditions: albino, rat; for viability at 24 h, 1 µM / viability at 24 h, 10 µM / viability at 24 h, 50 µM / viability at 24 h, 100 µM: peritoneal macrophages (raw macrophages), raw macrophages, MTT, read-out: % Cell Viability; for IC50 at 24 h: primary peritoneal macrophages, mean ± SEM, n = 3
Description: The % cell viability of the synthetic library was evaluated in vitro by measuring the mitochondrial dehydrogenase activity (MTT test) on raw macrophages.
The cytotoxic potential was assessed by using an MTT 3-(4,5-dimethyl thiazole-2-yl)-2,5- diphenyl tetrazolium bromide assay. Briefly, macrophages were extracted from the peritoneal cavity of albino rats and plated at a density of 1 × 10^6 per well in a 96-well plate and incubated in a 5% CO2 incubator at 37 °C for 24 h. The cells were treated with various concentrations of the test compounds (100 µM, 50 µM, 10 µM and 1 µM) or vehicle alone. The test compounds were first dissolved in DMSO to make a 100 mM stock solution and then further dilutions were made from this stock solution. After 24 h of incubation, 20 µL of MTT (1 mg/mL in normal saline) was added into each well and incubated under the same conditions for 2 h. Mitochondrial succinate dehydrogenase converted MTT in live cells into purple formazan crystals. The formazan crystals were then solubilized in 100 µL DMSO, and the absorbance was measured at 570 nm. The % cell viability was calculated by the following formula; % cell viability = (abssample − absblank)/(abscontrol − absblank) × 100

[5] = Mus musculus, Macrophage, 50 µM
[6] = 0 h after carrageenan injection
[7] = 2 h after carrageenan injection
[8] = 4 h after carrageenan injection
[9] = 6 h after carrageenan injection

Row | Structure (SMILES) | LD50 ± SEM (brine shrimp lethality) (brine shrimp nauplii) | % inhibition of α-amylase enzyme (α-amylase enzyme) | activity at 1 µM ([1]; Mus musculus, Macrophage, 1 µM) | activity at 10 µM ([1]; Mus musculus, Macrophage) | activity at 50 µM [1, 5] | activity at 100 µM ([1]; Mus musculus, Macrophage) | Paw thickness [2, 6] | Paw thickness [2, 7] | Paw thickness [2, 8] | Paw thickness [2, 9] | % DPPH Scavenging Activity ([3]; 7.4 µg/mL) | % DPPH Scavenging Activity ([3]; 22.22 µg/mL) | % DPPH Scavenging Activity ([3]; 66.66 µg/mL) | % DPPH Scavenging Activity ([3]; 200 µg/mL) | IC50 (DPPH radical scavenging) [3] | viability at 24 h, 1 µM [4] | viability at 24 h, 10 µM [4] | viability at 24 h, 50 µM [4] | viability at 24 h, 100 µM [4] | IC50 at 24 h [4] | further results
1 | c1ccc2c(c1)CCCN2CN1CCOCC1 [SF2, 4-((3,4-Dihydroquinolin—1(2H)-yl)methyl) morpholine] | 141.4 ± 2.1 µg/mL | 79.97% | 32.2 ± 0.46% | 27.1 ± 0.36% | 22.1 ± 0.33% | 15.3 ± 0.29% | 2.05 ± 0.05 | 2.11 ± 0.06 | 2.17 ± 0.03 | 2.23 ± 0.07 | 17.44 ± 0.26% | 36.61 ± 0.22% | 58.39 ± 0.27% | 71.85 ± 0.27% | 42.55 ± 0.36 µg/mL (≈ 183 µM) | 76 ± 0.46% | 70 ± 0.91% | 60 ± 0.91% | 50 ± 1.52% | 26.8 ± 0.3 µM | –
2 | c1ccc2c(c1)CCCN2CN1CCCC1 [SF3, 1-(Pyrollidin-1-ylmethyl) -1,2,3,4-tetrahydroquinoline] | 102 ± 1.98 µg/mL | – | 33.2 ± 0.47% | 29.6 ± 0.42% | 23.8 ± 0.39% | 19.7 ± 0.37% | 2.05 ± 0.06 | 2.16 ± 0.05 | 2.22 ± 0.02 | 2.28 ± 0.07 | 3.76 ± 0.125% | 9.85 ± 0.18% | 18.32 ± 0.91% | 27.19 ± 0.31% | 52.75 ± 0.28 µg/mL (≈ 244 µM) | 83 ± 0.63% | 78 ± 0.74% | 72 ± 1.34% | 41 ± 1.07% | 29.1 ± 0.5 µM | –
3 | CC(=O)N(CN1CCCc2ccccc21)c1ccc(O)cc1 [SF13, N-((3,4-dihydroquinolin-1(2H)-yl)methyl)-N-(4-hydroxyphenyl) acetamide] | 204 ± 1.67 µg/mL | 10.51% | 25.1 ± 0.59% | 22.2 ± 0.52% | 15.6 ± 0.47% | 14.5 ± 0.44% | 2.04 ± 0.07 | 2.18 ± 0.03 | 2.26 ± 0.06 | 2.31 ± 0.07 | 1.98 ± 0.20% | 4.44 ± 0.18% | 11.78 ± 0.15 s % | 19.34 ± 0.34% | – | 85 ± 0.93% | 82 ± 0.66% | 73 ± 1.01% | 60 ± 1.24% | 41.4 ± 0.69 µM | NO level scavenged (maximum) ([1]; 50 µM): 85%; inhibition at 1 µM ([1]; Mus musculus, Macrophage, 1 µM, read-out: NO maximum inhibition): 75%
